Laboratory results published in patent US6479435B1, “Diaryl ethers and processes for their preparation and herbicidal and desiccant compositions containing them” (ISK Americas Incorporated, priority 1997, dated 2002).

Experiments:
Format in all cases: in vivo
[1] = tested on: soybean (Glycine max L., var. Pella 86, SOY); test: Post-emerge greenhouse test, crop damage rating; design: key to crop damage rating SOY: 0-100 scale: 0 = no damage, 100 = complete death of all plants; settings: 14 days after application, scale 0-100
Outline: (§1)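 Plants at the 2-3 leaf stage, sown 8-21 days earlier, were track-sprayed post-emergence with compound in acetone plus 0.25% v/v non-ionic surfactant at 63-1000 g ai/ha (187 l/ha). Damage was rated at 14 days on a 0-100 scale (0 none, 100 all plants dead), for both crop injury and weed control.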

[2] = tested on: field corn (Zea mays L., var. Dekalb 535, CORN); test: Pre-emerge greenhouse test, crop damage rating; settings: 14 days after application, rating scale 0-100
Outline: (§2)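 Seeds sown in sandy loam one day before track-sprayer application of acetone solutions at 125–1000 g ai/ha (187 l/ha), then surface-watered to incorporate and bottom-watered. Injury scored visually at 14 days on a 0–100 scale (0 no damage, 100 complete death).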

[3] = tested on: upland rice (Oryza sp., var.Tebonnet, RICE); test: Pre-emerge greenhouse test, crop damage rating; settings: 14 days after application, rating scale 0-100
Outline: as §2

[4] = tested on: large crabgrass (Digitaria sanguinalis, DIGSA); test: Post-emerge greenhouse herbicide test, phytotoxicity rating; settings: 14 days after application, scale 0-100
Outline: as §1

[5] = tested on: redroot pigweed (Amaranthus retroflexus, AMARE); test: as above; settings: 14 days after application, scale 0-100
Outline: as §1

[6] = tested on: velvetleaf (Abutilon theophrasti, ABUTH); test: as above; settings: 14 days after application, scale 0-100
Outline: as §1

[7] = tested on: lambsquarters (Chenopodium album, CHEAL); test: as above; settings: 14 days after application, scale 0-100
Outline: as §1

[8] = tested on: green foxtail (Setaria viridis, SETVI); test: as above; settings: 14 days after application, scale 0-100
Outline: as §1

[9] = tested on: sicklepod (Cassia obtusifolia, CASOB); test: as above; settings: 14 days after application, scale 0-100
Outline: as §1

[10] = tested on: Johnsongrass (Sorghum halepense, SORHA); test: as above; settings: 14 days after application, scale 0-100
Outline: as §1

[11] = tested on: barnyardgrass (Echinochloa crusgalli, ECHCG); test: as above; settings: 14 days after application, scale 0-100
Outline: as §1

[12] = tested on: ivyleaf morningglory (Ipomoea hederacea, IPOHE); test: as above; settings: 14 days after application, scale 0-100
Outline: as §1

[13] = tested on: large crabgrass (Digitaria sanguinalis, DIGSA); test: Pre-emerge greenhouse herbicide test, phytotoxicity rating; settings: 14 days after application, rating scale 0-100
Outline: as §2

[14] = tested on: redroot pigweed (Amaranthus retroflexus, AMARE); test: as above; settings: 14 days after application, rating scale 0-100
Outline: as §2

[15] = tested on: velvetleaf (Abutilon theophrasti, ABUTH); test: as above; settings: 14 days after application, rating scale 0-100
Outline: as §2

[16] = tested on: lambsquarters (Chenopodium album, CHEAL); test: as above; settings: 14 days after application, rating scale 0-100
Outline: as §2

[17] = tested on: green foxtail (Setaria viridis, SETVI); test: as above; settings: 14 days after application, rating scale 0-100
Outline: as §2

[18] = tested on: sicklepod (Cassia obtusifolia, CASOB); test: as above; settings: 14 days after application, rating scale 0-100
Outline: as §2

[19] = tested on: common ragweed (Ambrosia artemisiifolia L., AMBEL); test: as above; settings: 14 days after application, rating scale 0-100
Outline: as §2

[20] = tested on: Johnsongrass (Sorghum halepense, SORHA); test: as above; settings: 14 days after application, rating scale 0-100
Outline: as §2

[21] = tested on: barnyardgrass (Echinochloa crusgalli, ECHCG); test: as above; settings: 14 days after application, rating scale 0-100
Outline: as §2

[22] = tested on: ivyleaf morningglory (Ipomoea hederacea, IPOHE); test: as above; settings: 14 days after application, rating scale 0-100
Outline: as §2

[23] = tested on: common ragweed (Ambrosia artemisiifolia L., AMBEL); test: Post-emerge greenhouse herbicide test, phytotoxicity rating; settings: 14 days after application, scale 0-100
Outline: as §1

[24] = tested on: field corn (Zea mays L., var. Dekalb 535, CORN); test: Post-emerge greenhouse test, crop damage rating; settings: 14 days after application, scale 0-100
Outline: as §1

[25] = tested on: upland rice (Oryza sp., var.Tebonnet, RICE); test: Post-emerge greenhouse test, crop damage rating; settings: 14 days after application, scale 0-100
Outline: as §1

[26] = tested on: soybean (Glycine max L., var. Pella 86, SOY); test: Pre-emerge greenhouse test, crop damage rating; design: key to SOY crop damage rating: 0 = no damage, 100 = complete death of all plants; settings: 14 days after application, rating scale 0-100
Outline: as §2

N#Cc1ccc(Oc2cc(-n3c(=O)n4n(c3=S)CCCC4)c(F)cc2Cl)nc1 [Compound 8-22]
90: DIGSA phytotoxicity rating ([13]; Rate 500 g al/ha) | CASOB phytotoxicity rating ([18]; Rate 500 g al/ha)
53: crop damage rating CORN ([24]; rate 63 g ai/ha)
50: phytotoxicity rating CASOB ([9]; rate 63 g ai/ha) | SOY crop damage rating ([26]; Rate 125 g al/ha)
70: SOY crop damage rating ([26]; Rate 500 g al/ha)
5: crop damage rating RICE ([25]; rate 63 g ai/ha)
100: phytotoxicity rating AMARE ([5]; rate 500 g ai/ha) | phytotoxicity rating ABUTH ([6]; rate 63 g ai/ha) | phytotoxicity rating ABUTH ([6]; rate 500 g ai/ha) | phytotoxicity rating CHEAL ([7]; rate 63 g ai/ha) | phytotoxicity rating CHEAL ([7]; rate 500 g ai/ha) | phytotoxicity rating IPOHE ([12]; rate 500 g ai/ha) | AMARE phytotoxicity rating ([14]; Rate 125 g al/ha) | AMARE phytotoxicity rating ([14]; Rate 500 g al/ha) | ABUTH phytotoxicity rating ([15]; Rate 125 g al/ha) | ABUTH phytotoxicity rating ([15]; Rate 500 g al/ha) | CHEAL phytotoxicity rating ([16]; Rate 125 g al/ha) | CHEAL phytotoxicity rating ([16]; Rate 500 g al/ha) | SETVI phytotoxicity rating ([17]; Rate 500 g al/ha) | AMBEL phytotoxicity rating ([19]; Rate 125 g al/ha) | AMBEL phytotoxicity rating ([19]; Rate 500 g al/ha) | phytotoxicity rating AMBEL ([23]; rate 500 g ai/ha)
95: crop damage rating SOY ([1]; rate 500 g ai/ha) | phytotoxicity rating AMARE ([5]; rate 63 g ai/ha)
0: CORN crop damage rating ([2]; Rate 125 g al/ha) | RICE crop damage rating ([3]; Rate 125 g al/ha) | phytotoxicity rating DIGSA ([4]; rate 63 g ai/ha) | phytotoxicity rating SORHA ([10]; rate 63 g ai/ha) | SORHA phytotoxicity rating ([20]; Rate 125 g al/ha) | ECHCG phytotoxicity rating ([21]; Rate 125 g al/ha)
20: phytotoxicity rating SETVI ([8]; rate 63 g ai/ha) | DIGSA phytotoxicity rating ([13]; Rate 125 g al/ha) | CASOB phytotoxicity rating ([18]; Rate 125 g al/ha) | SORHA phytotoxicity rating ([20]; Rate 500 g al/ha)
40: RICE crop damage rating ([3]; Rate 500 g al/ha) | SETVI phytotoxicity rating ([17]; Rate 125 g al/ha) | IPOHE phytotoxicity rating ([22]; Rate 125 g al/ha)
65: crop damage rating SOY ([1]; rate 63 g ai/ha)
60: CORN crop damage rating ([2]; Rate 500 g al/ha)
80: phytotoxicity rating CASOB ([9]; rate 500 g ai/ha) | phytotoxicity rating IPOHE ([12]; rate 63 g ai/ha) | phytotoxicity rating AMBEL ([23]; rate 63 g ai/ha)
10: phytotoxicity rating ECHCG ([11]; rate 63 g ai/ha) | IPOHE phytotoxicity rating ([22]; Rate 500 g al/ha) | crop damage rating RICE ([25]; rate 500 g ai/ha)
30: phytotoxicity rating DIGSA ([4]; rate 500 g ai/ha) | phytotoxicity rating SORHA ([10]; rate 500 g ai/ha) | phytotoxicity rating ECHCG ([11]; rate 500 g ai/ha) | ECHCG phytotoxicity rating ([21]; Rate 500 g al/ha)
75: phytotoxicity rating SETVI ([8]; rate 500 g ai/ha)
15: crop damage rating CORN ([24]; rate 500 g ai/ha)

O=c1n(-c2cc(Oc3ccc([N+](=O)[O-])cn3)c(Cl)cc2F)c(=S)n2n1CCCC2 [Compound 8-23]
95: phytotoxicity rating AMARE ([5]; rate 63 g ai/ha) | phytotoxicity rating CHEAL ([7]; rate 63 g ai/ha) | ABUTH phytotoxicity rating ([15]; Rate 125 g al/ha)
70: phytotoxicity rating CASOB ([9]; rate 63 g ai/ha)
50: phytotoxicity rating IPOHE ([12]; rate 63 g ai/ha) | DIGSA phytotoxicity rating ([13]; Rate 500 g al/ha) | CASOB phytotoxicity rating ([18]; Rate 500 g al/ha) | phytotoxicity rating AMBEL ([23]; rate 63 g ai/ha)
25: crop damage rating SOY ([1]; rate 63 g ai/ha)
100: phytotoxicity rating ABUTH ([6]; rate 63 g ai/ha) | phytotoxicity rating ABUTH ([6]; rate 500 g ai/ha) | phytotoxicity rating CASOB ([9]; rate 500 g ai/ha) | phytotoxicity rating IPOHE ([12]; rate 500 g ai/ha) | AMARE phytotoxicity rating ([14]; Rate 500 g al/ha) | ABUTH phytotoxicity rating ([15]; Rate 500 g al/ha) | CHEAL phytotoxicity rating ([16]; Rate 125 g al/ha) | CHEAL phytotoxicity rating ([16]; Rate 500 g al/ha) | SETVI phytotoxicity rating ([17]; Rate 500 g al/ha) | phytotoxicity rating AMBEL ([23]; rate 500 g ai/ha)
0: CORN crop damage rating ([2]; Rate 125 g al/ha) | CORN crop damage rating ([2]; Rate 500 g al/ha) | RICE crop damage rating ([3]; Rate 125 g al/ha) | RICE crop damage rating ([3]; Rate 500 g al/ha) | phytotoxicity rating DIGSA ([4]; rate 63 g ai/ha) | phytotoxicity rating DIGSA ([4]; rate 500 g ai/ha) | phytotoxicity rating SETVI ([8]; rate 63 g ai/ha) | phytotoxicity rating SORHA ([10]; rate 63 g ai/ha) | phytotoxicity rating ECHCG ([11]; rate 63 g ai/ha) | phytotoxicity rating ECHCG ([11]; rate 500 g ai/ha) | DIGSA phytotoxicity rating ([13]; Rate 125 g al/ha) | CASOB phytotoxicity rating ([18]; Rate 125 g al/ha) | AMBEL phytotoxicity rating ([19]; Rate 125 g al/ha) | SORHA phytotoxicity rating ([20]; Rate 125 g al/ha) | ECHCG phytotoxicity rating ([21]; Rate 125 g al/ha) | crop damage rating CORN ([24]; rate 63 g ai/ha) | crop damage rating RICE ([25]; rate 63 g ai/ha) | crop damage rating RICE ([25]; rate 500 g ai/ha) | SOY crop damage rating ([26]; Rate 125 g al/ha)
20: phytotoxicity rating SETVI ([8]; rate 500 g ai/ha) | phytotoxicity rating SORHA ([10]; rate 500 g ai/ha) | SOY crop damage rating ([26]; Rate 500 g al/ha)
10: SETVI phytotoxicity rating ([17]; Rate 125 g al/ha) | ECHCG phytotoxicity rating ([21]; Rate 500 g al/ha)
60: crop damage rating SOY ([1]; rate 500 g ai/ha) | AMBEL phytotoxicity rating ([19]; Rate 500 g al/ha) | IPOHE phytotoxicity rating ([22]; Rate 500 g al/ha)
5: crop damage rating CORN ([24]; rate 500 g ai/ha)
90: AMARE phytotoxicity rating ([14]; Rate 125 g al/ha)
99: phytotoxicity rating AMARE ([5]; rate 500 g ai/ha) | phytotoxicity rating CHEAL ([7]; rate 500 g ai/ha)
30: SORHA phytotoxicity rating ([20]; Rate 500 g al/ha) | IPOHE phytotoxicity rating ([22]; Rate 125 g al/ha)
